Measured values: ChEMBL document CHEMBL4619707, “Synthesis and biological investigation of triazolopyridinone derivatives as potential multireceptor atypical antipsychotics” (Bioorg Med Chem Lett, 2020)
pEC50, pIC50: −log10 of the molar value. Converted amounts (≈) assume the structure as drawn. The source made the active and inactive calls. The rule behind the calls is not given here.

Experiments:
[1] = molecular target: T1, 5-hydroxytryptamine receptor 1A (Homo sapiens, UniProt P08908); experiment: Agonist activity at 5HT1A receptor (unknown origin) by calcium-dye based FLIPR assay; type: functional
T1 sequence (P08908 whole entry): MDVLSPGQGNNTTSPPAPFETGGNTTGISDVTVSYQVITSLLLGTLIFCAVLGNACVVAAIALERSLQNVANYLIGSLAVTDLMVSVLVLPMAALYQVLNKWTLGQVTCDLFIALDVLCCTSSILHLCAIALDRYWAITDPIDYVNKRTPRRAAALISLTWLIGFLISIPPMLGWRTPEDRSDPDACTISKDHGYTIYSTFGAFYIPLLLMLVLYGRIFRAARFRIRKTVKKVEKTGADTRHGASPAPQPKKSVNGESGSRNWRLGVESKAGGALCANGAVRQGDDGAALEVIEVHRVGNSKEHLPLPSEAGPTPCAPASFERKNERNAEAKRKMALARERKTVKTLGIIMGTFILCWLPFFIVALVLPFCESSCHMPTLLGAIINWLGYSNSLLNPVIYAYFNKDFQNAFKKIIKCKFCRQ

[2] = molecular target: 5-hydroxytryptamine receptor 2A (Homo sapiens, UniProt P28223); experiment: Antagonist activity at 5HT2A receptor (unknown origin) by HTRF cAMP assay; type: functional
5-hydroxytryptamine receptor 2A, sequence (P28223 whole entry): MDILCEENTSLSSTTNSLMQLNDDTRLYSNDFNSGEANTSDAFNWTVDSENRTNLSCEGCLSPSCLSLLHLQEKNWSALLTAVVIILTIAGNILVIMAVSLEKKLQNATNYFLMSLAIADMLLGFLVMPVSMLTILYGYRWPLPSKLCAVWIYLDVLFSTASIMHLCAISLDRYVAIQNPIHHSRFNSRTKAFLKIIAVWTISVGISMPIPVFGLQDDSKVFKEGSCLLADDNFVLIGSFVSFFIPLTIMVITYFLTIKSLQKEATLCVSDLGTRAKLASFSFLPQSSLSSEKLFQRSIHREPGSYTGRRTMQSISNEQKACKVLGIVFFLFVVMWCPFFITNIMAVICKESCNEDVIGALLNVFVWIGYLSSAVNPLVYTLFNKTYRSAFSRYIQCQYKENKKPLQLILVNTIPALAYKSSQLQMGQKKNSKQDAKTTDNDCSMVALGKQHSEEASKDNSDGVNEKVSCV

Mus musculus [3] = experiment: Antipsychotic activity in ICR mouse assessed as inhibition of quipazine-induced head-twitch response at 0.3 mg/kg, po administered with compound after quipazine administration measured for 15 mins; type: functional, organism-based
[4] = molecular target: Voltage-gated inwardly rectifying potassium channel KCNH2 (Homo sapiens, UniProt Q12809); experiment: Inhibition of human ERG
Voltage-gated inwardly rectifying potassium channel KCNH2, sequence (Q12809 whole entry): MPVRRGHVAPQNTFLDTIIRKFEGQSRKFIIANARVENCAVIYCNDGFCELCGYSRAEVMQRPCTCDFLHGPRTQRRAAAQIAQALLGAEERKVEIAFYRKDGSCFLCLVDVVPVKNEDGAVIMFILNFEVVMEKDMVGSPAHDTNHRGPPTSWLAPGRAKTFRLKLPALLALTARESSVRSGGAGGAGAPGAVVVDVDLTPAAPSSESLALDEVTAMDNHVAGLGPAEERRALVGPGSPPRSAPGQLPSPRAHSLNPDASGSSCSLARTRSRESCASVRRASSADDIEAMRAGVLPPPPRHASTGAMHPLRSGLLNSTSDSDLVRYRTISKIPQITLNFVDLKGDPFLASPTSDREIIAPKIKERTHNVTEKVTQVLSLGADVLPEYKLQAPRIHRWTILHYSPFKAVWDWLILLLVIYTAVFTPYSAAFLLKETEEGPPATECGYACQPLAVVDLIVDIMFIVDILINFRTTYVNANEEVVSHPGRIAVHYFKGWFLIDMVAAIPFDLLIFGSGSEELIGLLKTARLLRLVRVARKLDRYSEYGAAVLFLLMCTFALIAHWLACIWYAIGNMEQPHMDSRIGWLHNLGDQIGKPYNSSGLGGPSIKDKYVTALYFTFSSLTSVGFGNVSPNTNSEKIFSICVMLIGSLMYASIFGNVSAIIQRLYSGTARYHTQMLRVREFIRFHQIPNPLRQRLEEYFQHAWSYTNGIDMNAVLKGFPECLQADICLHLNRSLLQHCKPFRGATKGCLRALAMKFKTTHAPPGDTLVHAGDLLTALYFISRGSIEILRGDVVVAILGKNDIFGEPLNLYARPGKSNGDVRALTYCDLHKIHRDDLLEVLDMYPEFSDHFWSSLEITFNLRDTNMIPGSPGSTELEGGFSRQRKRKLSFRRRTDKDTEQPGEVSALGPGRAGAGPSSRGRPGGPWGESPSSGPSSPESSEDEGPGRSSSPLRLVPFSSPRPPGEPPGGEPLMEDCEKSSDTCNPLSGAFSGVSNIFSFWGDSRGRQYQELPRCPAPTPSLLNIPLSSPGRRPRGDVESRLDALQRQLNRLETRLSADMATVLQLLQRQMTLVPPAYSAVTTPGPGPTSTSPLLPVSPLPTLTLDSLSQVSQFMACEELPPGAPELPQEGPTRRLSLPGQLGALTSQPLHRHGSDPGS

[5] = molecular target: Muscarinic acetylcholine receptor M3 (Homo sapiens, UniProt P20309); experiment: Antagonist activity at muscarinic M3 receptor (unknown origin); type: ADME
Muscarinic acetylcholine receptor M3, sequence (P20309 whole entry): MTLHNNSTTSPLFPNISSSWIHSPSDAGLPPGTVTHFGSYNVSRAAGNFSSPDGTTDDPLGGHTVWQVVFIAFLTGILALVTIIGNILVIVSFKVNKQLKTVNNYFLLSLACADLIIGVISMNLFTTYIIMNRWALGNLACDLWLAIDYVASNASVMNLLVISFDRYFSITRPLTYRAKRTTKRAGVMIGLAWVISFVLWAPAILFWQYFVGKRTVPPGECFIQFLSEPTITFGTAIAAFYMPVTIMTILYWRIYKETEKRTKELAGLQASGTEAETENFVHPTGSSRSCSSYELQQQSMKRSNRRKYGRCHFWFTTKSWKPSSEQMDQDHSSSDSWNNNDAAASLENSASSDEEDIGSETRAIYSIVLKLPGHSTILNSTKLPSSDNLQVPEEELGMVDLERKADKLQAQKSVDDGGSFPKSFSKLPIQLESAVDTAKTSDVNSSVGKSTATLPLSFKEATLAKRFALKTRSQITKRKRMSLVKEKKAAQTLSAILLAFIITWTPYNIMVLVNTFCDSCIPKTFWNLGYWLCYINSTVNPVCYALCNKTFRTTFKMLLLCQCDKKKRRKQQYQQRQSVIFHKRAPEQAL

[6] = molecular target: T2, 5-hydroxytryptamine receptor 2C (Homo sapiens, UniProt P28335); experiment: Antagonist activity at 5-HT2C receptor (unknown origin)
T2 sequence (P28335 whole entry): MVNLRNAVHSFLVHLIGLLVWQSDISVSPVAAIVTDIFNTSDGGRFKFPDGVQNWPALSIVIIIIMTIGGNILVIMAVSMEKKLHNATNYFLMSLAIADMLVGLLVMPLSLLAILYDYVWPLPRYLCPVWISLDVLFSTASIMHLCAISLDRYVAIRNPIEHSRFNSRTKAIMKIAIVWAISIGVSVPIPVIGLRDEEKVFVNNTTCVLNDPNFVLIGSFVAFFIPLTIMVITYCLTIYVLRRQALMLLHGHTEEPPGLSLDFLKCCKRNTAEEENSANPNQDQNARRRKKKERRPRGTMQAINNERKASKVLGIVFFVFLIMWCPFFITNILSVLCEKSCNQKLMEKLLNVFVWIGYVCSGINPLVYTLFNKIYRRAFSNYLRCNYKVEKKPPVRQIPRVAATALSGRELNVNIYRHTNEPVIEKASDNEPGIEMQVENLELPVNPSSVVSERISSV

HEK293 = experiment: Cytotoxicity against human HEK293 cells assessed as reduction in cell viability; type: cell-based
[7] = Cytotoxicity against human Chang cells assessed as reduction in cell viability; type: cell-based
D(2) dopamine receptor [8] = molecular target: T3, D(2) dopamine receptor (Homo sapiens, UniProt P14416); experiment: Agonist activity at D2 receptor (unknown origin) relative to 10 uM dopamine
T3 sequence (P14416 whole entry): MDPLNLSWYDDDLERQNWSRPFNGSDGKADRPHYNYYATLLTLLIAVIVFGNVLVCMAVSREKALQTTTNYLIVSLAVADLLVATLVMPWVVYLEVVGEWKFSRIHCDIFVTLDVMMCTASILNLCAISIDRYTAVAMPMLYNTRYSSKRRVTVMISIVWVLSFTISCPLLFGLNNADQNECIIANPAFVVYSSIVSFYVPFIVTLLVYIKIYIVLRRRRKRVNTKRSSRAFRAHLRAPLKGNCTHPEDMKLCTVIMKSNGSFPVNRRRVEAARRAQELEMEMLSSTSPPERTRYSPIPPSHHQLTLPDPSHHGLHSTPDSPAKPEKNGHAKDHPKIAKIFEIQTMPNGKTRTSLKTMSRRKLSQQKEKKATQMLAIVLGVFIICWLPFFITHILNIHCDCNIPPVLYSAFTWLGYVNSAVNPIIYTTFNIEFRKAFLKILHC

D(2) dopamine receptor [9] = molecular target: T3, D(2) dopamine receptor; experiment: Agonist activity at D2 receptor (unknown origin)
Histamine H1 receptor = Histamine H1 receptor (Homo sapiens, UniProt P35367); experiment: Antagonist activity at H1 receptor (unknown origin); type: ADME
Histamine H1 receptor, sequence (P35367 whole entry): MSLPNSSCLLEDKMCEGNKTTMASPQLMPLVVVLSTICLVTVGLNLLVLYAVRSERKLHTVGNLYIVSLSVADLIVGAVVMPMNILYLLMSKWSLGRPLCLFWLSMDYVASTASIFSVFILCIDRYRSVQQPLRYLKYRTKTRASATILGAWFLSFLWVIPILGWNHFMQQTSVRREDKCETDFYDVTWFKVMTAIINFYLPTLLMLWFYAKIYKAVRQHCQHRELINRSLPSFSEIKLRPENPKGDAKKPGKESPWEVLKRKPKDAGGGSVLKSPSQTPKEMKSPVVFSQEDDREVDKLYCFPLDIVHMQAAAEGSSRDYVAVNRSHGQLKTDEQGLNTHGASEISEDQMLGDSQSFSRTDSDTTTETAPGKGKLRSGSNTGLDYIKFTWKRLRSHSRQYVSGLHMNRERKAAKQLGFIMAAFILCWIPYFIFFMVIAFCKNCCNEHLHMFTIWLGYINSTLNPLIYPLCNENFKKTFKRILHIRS

[10] = Toxicity in mouse assessed as sedation by measuring spontaneous locomotor activity at 3 to 10 mg/kg, po; type: organism-based; settings: in vivo
Mus musculus [11] = experiment: Antipsychotic activity in po dosed ICR mouse assessed as inhibition of quipazine-induced head-twitch response administered with compound after quipazine administration measured for 15 mins; type: functional, organism-based
[12] = Toxicity in mouse assessed as sedation by measuring spontaneous locomotor activity at 0.3 mg/kg, po; type: organism-based; settings: in vivo
Mus musculus [13] = experiment: Antipsychotic activity in po dosed mouse assessed as inhibition of phencyclidine-induced hyperlocomotion administered with compound after phencyclidine challenge measured for 75 mins; type: functional, organism-based
[14] = molecular target: Sodium-dependent serotonin transporter (Homo sapiens) (UniProt P31645); settings: 400 nM
Sodium-dependent serotonin transporter (Homo sapiens), sequence (P31645 whole entry, looked up): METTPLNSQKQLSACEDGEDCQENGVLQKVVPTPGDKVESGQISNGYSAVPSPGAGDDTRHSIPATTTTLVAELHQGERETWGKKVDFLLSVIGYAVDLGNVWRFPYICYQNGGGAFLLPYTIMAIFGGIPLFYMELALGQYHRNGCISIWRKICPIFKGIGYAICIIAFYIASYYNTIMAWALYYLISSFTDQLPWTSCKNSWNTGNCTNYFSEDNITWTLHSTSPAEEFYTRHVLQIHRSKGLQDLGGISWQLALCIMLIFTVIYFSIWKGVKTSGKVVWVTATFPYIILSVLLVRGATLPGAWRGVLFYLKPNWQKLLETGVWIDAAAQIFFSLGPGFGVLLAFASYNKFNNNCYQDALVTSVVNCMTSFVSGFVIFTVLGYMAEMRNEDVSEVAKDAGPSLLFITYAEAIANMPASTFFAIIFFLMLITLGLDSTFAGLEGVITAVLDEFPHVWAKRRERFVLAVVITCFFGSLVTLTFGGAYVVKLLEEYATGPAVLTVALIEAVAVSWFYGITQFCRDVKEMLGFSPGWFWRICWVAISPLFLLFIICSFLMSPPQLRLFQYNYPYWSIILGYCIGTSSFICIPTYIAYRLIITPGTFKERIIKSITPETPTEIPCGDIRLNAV
Description: Antagonist activity at SERT receptor (unknown origin) at 400 nM by fluorescence based assay relative to control

N#Cc1ccn2c(=O)n(CCCCN3CCN(c4cccc5sccc45)CC3)nc2c1
pEC50 [1]: 8.23 | pIC50 [2]: 6.14

O=c1n(CCCCN2CCN(c3cccc4scnc34)CC2)nc2ccccn12
pEC50 [1]: 8.55 | pIC50 [2]: 5.56

O=c1n(CCCCN2CCN(c3cccc4sccc34)CC2)nc2c(F)cccn12
pEC50 [1]: 8.74 | inhibition (Mus musculus [3]): Active | pIC50 [4]: 5.66 | pIC50 [5]: < 5.00 | pIC50 [6]: 5.68 | pIC50 [2]: 7.45

O=c1ccc2ccc(OCCCCN3CCN(c4cccc5sccc45)CC3)cc2[nH]1 [BREXPIPRAZOLE]
IC50 (HEK293): 19.1 µg/mL (≈ 44.1 µM) | IC50 [7]: 44.2 µg/mL (≈ 102 µM) | Emax (D(2) dopamine receptor [8]): 29% | pEC50 (D(2) dopamine receptor [9]; read-out: EC50): 8.20

O=c1n(CCCCN2CCN(c3cccc4sccc34)CC2)nc2ccc(Cl)cn12
pEC50 [1]: 8.02 | pIC50 [2]: 6.84

O=c1n(CCCCN2CCN(c3cccc4sccc34)CC2)nc2c(Cl)cccn12
pEC50 [1]: 7.92 | pIC50 [2]: 6.43

O=c1n(CCCCN2CCC(c3cc(F)cc4oncc34)CC2)nc2ccccn12
pEC50 [1]: < 5.00 | pIC50 [2]: 7.82

O=c1n(CCCCN2CCN(c3cccc4sccc34)CC2)nc2c(F)cc(F)cn12
pEC50 [1]: 8.92 | pIC50 [2]: 7.57

COc1cccc2nn(CCCCN3CCN(c4cccc5sccc45)CC3)c(=O)n12
pEC50 [1]: 8.70 | inhibition (Mus musculus [3]): Active | pIC50 [2]: 7.89

N#Cc1ccc2nn(CCCCN3CCN(c4cccc5sccc45)CC3)c(=O)n2c1
pEC50 [1]: 8.01 | pIC50 [4]: 5.98 | pIC50 [5]: < 5.00 | pIC50 (Histamine H1 receptor): 7.12 | pIC50 [6]: 5.48 | pIC50 [2]: 7.96

O=c1n(CCCCN2CCN(c3cccc4sccc34)CC2)nc2ccccn12
pEC50 [1]: 8.74 to 8.77 | Activity [10]: Toxic | inhibition (Mus musculus [11]): Dose-dependent effect | inhibition (Mus musculus [3]): Active | IC50 (HEK293): 108 µg/mL (≈ 265 µM) | pIC50 [4]: 5.52 | Activity [12]: Non-Toxic | pIC50 [5]: < 5.00 | pIC50 (Histamine H1 receptor): 7.05 | inhibition (Mus musculus [13]): Dose-dependent effect | pIC50 [6]: < 5.00 | pIC50 [2]: 7.47

N#Cc1cccc2nn(CCCCN3CCN(c4cccc5sccc45)CC3)c(=O)n12
pEC50 [1]: 7.69 | pIC50 [2]: 6.98

N#Cc1cccn2c(=O)n(CCCCN3CCN(c4cccc5sccc45)CC3)nc12
pEC50 [1]: 8.85 | pIC50 [2]: 6.81

COc1cccn2c(=O)n(CCCCN3CCN(c4cccc5sccc45)CC3)nc12
pEC50 [1]: 8.66 | pIC50 [2]: 7.07

O=c1n(CCCCN2CCN(c3cccc4sc(F)cc34)CC2)nc2c(F)cccn12
pEC50 [1]: 8.82 | pIC50 [2]: 5.97

O=C1CCc2ccc(OCCCCN3CCN(c4cccc(Cl)c4Cl)CC3)cc2N1
inhibition (Mus musculus [3]): Active | inhibition [14]: 21%

Cc1nc2n(c(=O)c1CCN1CCC(c3noc4cc(F)ccc34)CC1)CCCC2 [RISPERIDONE]
IC50 (HEK293): > 600 µg/mL | IC50 [7]: 239 µg/mL (≈ 582 µM) | Emax (D(2) dopamine receptor [8]): < 20% | EC50 (D(2) dopamine receptor [9]): Not Active

O=c1n(CCCCN2CCN(c3cccc4scnc34)CC2)nc2c(F)cccn12
pEC50 [1]: 10.00 | pIC50 [2]: 7.11

O=c1n(CCCCN2CCN(c3cccc4sccc34)CC2)nc2c(Br)cccn12
pEC50 [1]: 8.15 | pIC50 [2]: 6.88

O=c1n(CCCCN2CCN(c3cccc4sccc34)CC2)nc2c(Cl)cc(Cl)cn12
pEC50 [1]: 10.00 | pIC50 [2]: 6.19

O=c1n(CCCN2CCN(c3cccc(Cl)c3)CC2)nc2ccccn12 [TRAZODONE]
Emax (D(2) dopamine receptor [8]): < 20% | EC50 (D(2) dopamine receptor [9]): Not Active

O=c1n(CCCCN2CCN(c3cccc4sccc34)CC2)nc2ccc(F)cn12
pEC50 [1]: 10.00 | pIC50 [2]: 7.33
